21 compounds from patent US8435990B2, “Dihydropyrimidone amides as P2X7 modulators” (Roche Palo Alto LLC, priority 2009, dated 2013) can be followed below.

The experiment deals with T1, human P2X7 (Homo sapiens, UniProt Q99572).
T1 construct: 1321N1 cells stably expressing the full length human P2X7 gene (1321N1-hP2X7)
T1 sequence (Q99572 1-595): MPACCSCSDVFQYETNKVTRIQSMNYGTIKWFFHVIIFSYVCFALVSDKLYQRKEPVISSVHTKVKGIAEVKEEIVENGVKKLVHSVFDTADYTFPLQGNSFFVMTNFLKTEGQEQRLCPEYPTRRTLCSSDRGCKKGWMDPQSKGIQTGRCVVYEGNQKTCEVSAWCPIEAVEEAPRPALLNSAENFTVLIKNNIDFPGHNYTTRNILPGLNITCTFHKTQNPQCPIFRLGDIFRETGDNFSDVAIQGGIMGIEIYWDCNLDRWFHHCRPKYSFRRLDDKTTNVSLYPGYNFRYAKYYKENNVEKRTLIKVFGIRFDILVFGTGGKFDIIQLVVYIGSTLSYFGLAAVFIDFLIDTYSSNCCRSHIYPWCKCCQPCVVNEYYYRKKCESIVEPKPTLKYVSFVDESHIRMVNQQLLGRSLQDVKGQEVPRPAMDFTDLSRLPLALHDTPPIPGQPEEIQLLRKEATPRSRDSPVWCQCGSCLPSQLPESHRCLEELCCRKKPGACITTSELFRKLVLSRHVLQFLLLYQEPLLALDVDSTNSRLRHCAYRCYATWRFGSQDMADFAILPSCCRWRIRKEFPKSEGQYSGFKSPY
Briefly: P2X7 modulator pIC50 of Table 1 (assay not given; Intracellular Calcium Flux (FLIPR) Assay assumed). In kind it is cell-based. The protocol: Intracellular Calcium Flux (FLIPR) Assay
Stock solutions of compounds were prepared from powders as a 10 mM DMSO stock solution. These solutions were stored at RT during the two week period of these experiments to prevent freeze-thaw of the DMSO stocks. The DMSO stocks were added to the appropriate assay buffer at a concentration of 10 μM, and then diluted serially to the final concentrations that were tested. No observable precipitate was formed at any time during this process. The aqueous solutions of compounds as well as ATP (Sigma A7699) and BzATP (Sigma B6396) were prepared fresh for each day of experiment.
1321N1 cells stably expressing the full length human P2X7 gene (1321N1-hP2X7) and HEK293 cells stably expressing the full length rat P2X7 gene (HEK293-rP2X7) were obtained from the Roche Cell Culture Facility. 1321N1-hP2X7 cells were grown in Dulbecco's Modified Eagle's Medium (DMEM) high glucose supplemented with 10% FBS and 250 μg/mL G418. HEK293-rP2X7 cells were grown in DMEM/F-12 supplemented with 10% FBS, 1 mM CaCl2, 2 mM MgCl2, 2 mM L-Glutamine and 500 μg/ml G418. Cells were split such that they never became >70% confluent.
On the day prior to the experiment, 1321N1-hP2X7 or HEK293-rP2X7 cells were released into suspension with calcium-free PBS+Versene and washed by centrifugation with calcium-free PBS to remove the Versene. Cells were resuspended in growth medium at a density of 2.5×10^5 cells/mL and seeded into black walled, clear bottom 96 well plates (50,000 cells/well) approximately 18 hr prior to intracellular calcium flux experiments.
On the day of the experiment, plates were washed with FLIPR buffer (calcium- and magnesium-free Hank's Balanced Salt Solution (HBSS) supplemented with 10 mM Hepes, 2.5 mM probenecid and 2 mM calcium chloride) using a BIO-TEK 96 channel plate washer and incubated with […] fluo-3 dye at 37° C. for one hr. The dye was then removed by plate washing and the cells were allowed to equilibrate for 20 min at room temperature with antagonist or vehicle (FLIPR buffer). Agonist (100 μM BzATP final concentration for hP2X7; 5μM BzATP final concentration or rP2X7) was added online with the FLIPR and fluorescence measurements made at 1 sec intervals for 60 sec followed by 3 sec intervals for a further 4 min (5 min total). A final addition of 5 μM ionomycin was made and the maximal BzATP-evoked fluorescence normalized to the maximal ionomycin-evoked fluorescence.
On the technique in general: Calcium flux is commonly read through the fluorescence of an indicator in the cells.
Consider `Cc1c(NC(=O)C2=CN(C)C(=O)N[C@H]2c2ccc(F)cc2)cccc1-c1ccn[nH]1` [Compound 23, (S)-4-(4-Fluoro-phenyl)-1-methyl-2-oxo-1,2,3,4-tetrahydro-pyrimidine-5-carboxylic acid [2-methyl-3-(2H-pyrazol-3-yl)-phenyl]-amide], for which the IC50 is 184 nM. Under `COC[C@H](O)Cn1nc(-c2ccc(C)c(NC(=O)C3=CN(C)C(=O)N[C@H]3c3ccc(F)cc3)c2)cc1C` [Compound 24, (S)-4-(4-Fluoro-phenyl)-1-methyl-2-oxo-1,2,3,4-tetrahydro-pyrimidine-5-carboxylic acid {5-[1-((R)-2-hydroxy-3-methoxy-propyl)-5-methyl-1H-pyrazol-3-yl]-2-methyl-phenyl}-amide] stands 50.7 nM. With `COC[C@H](O)Cn1c(=O)cnn(-c2ccc(C)c(NC(=O)C3=CN(C)C(=O)N[C@H]3c3ccc(F)cc3)c2)c1=O` [Compound 25, (S)-4-(4-Fluoro-phenyl)-1-methyl-2-oxo-1,2,3,4-tetrahydro-pyrimidine-5-carboxylic acid {5-[4-((R)-2-hydroxy-3-methoxy-propyl)-3,5-dioxo-4,5-dihydro-3H-[1,2,4]triazin-2-yl]-2-methyl-phenyl}-amide], the IC50 was 91.2 nM.

On to `Cc1ccc(-n2ncccc2=O)cc1NC(=O)C1=CN(C)C(=O)N[C@H]1c1ccc(F)cc1` [Compound 26], for which the IC50 is 20 nM. The figure for `Cc1ccc(=O)n(-c2ccc(C)c(NC(=O)C3=CN(C)C(=O)N[C@H]3c3ccc(F)cc3)c2)n1` [Compound 27, (S)-4-(4-Fluoro-phenyl)-1-methyl-2-oxo-1,2,3,4-tetrahydro-pyrimidine-5-carboxylic acid [2-methyl-5-(3-methyl-6-oxo-6H-pyridazin-1-yl)-phenyl]-amide] is 40.3 nM; for `Cc1ccc(-c2cncc(=O)[nH]2)cc1NC(=O)C1=CN(C)C(=O)N[C@H]1c1ccc(F)cc1` [Compound 28, (S)-4-(4-Fluoro-phenyl)-1-methyl-2-oxo-1,2,3,4-tetrahydro-pyrimidine-5-carboxylic acid [2-methyl-5-(6-oxo-1,6-dihydro-pyrazin-2-yl)-phenyl]-amide] it is 153 nM; for `Cc1cc(Cl)c(OCCO)cc1NC(=O)C1=CN(C)C(=O)N[C@@H]1C1CCCCC1` [Compound 29, (R)-4-Cyclohexyl-1-methyl-2-oxo-1,2,3,4-tetrahydro-pyrimidine-5-carboxylic acid [4-chloro-5-(2-hydroxy-ethoxy)-2-methyl-phenyl]-amide] it is 54.7 nM. On to `Cc1cc(Cl)c(OCCO)cc1NC(=O)C1=CN(C)C(=O)N[C@H]1c1cccc(F)c1` [Compound 30, (S)-4-(3-Fluoro-phenyl)-1-methyl-2-oxo-1,2,3,4-tetrahydro-pyrimidine-5-carboxylic acid [4-chloro-5-(2-hydroxy-ethoxy)-2-methyl-phenyl]-amide], for which the IC50 was 20.2 nM. Under `Cc1ccc2[nH]c(=O)ccc2c1NC(=O)C1=CN(C)C(=O)N[C@H]1c1ccc(F)cc1` [Compound 31, (S)-4-(4-Fluoro-phenyl)-1-methyl-2-oxo-1,2,3,4-tetrahydro-pyrimidine-5-carboxylic acid (6-methyl-2-oxo-1,2-dihydro-quinolin-5-yl)-amide] stands 160 nM; under `Cc1ccc(-c2ccn[nH]c2=O)cc1NC(=O)C1=CN(C)C(=O)N[C@H]1c1ccc(F)cc1` [Compound 32, (S)-4-(4-Fluoro-phenyl)-1-methyl-2-oxo-1,2,3,4-tetrahydro-pyrimidine-5-carboxylic acid [2-methyl-5-(3-oxo-2,3-dihydro-pyridazin-4-yl)-phenyl]-amide], 21.1 nM; under `Cc1cc(-c2ccc(C)c(NC(=O)C3=CN(C)C(=O)N[C@H]3c3cccc(F)c3)c2)n[nH]1` [Compound 33, (S)-4-(3-Fluoro-phenyl)-1-methyl-2-oxo-1,2,3,4-tetrahydro-pyrimidine-5-carboxylic acid [2-methyl-5-(5-methyl-1H-pyrazol-3-yl)-phenyl]-amide], 107 nM. The figure for `CCc1c(NC(=O)C2=CN(C)C(=O)N[C@H]2c2ccc(F)cc2)ccc2nc(C)ccc12` [Compound 34, (S)-4-(4-Fluoro-phenyl)-1-methyl-2-oxo-1,2,3,4-tetrahydro-pyrimidine-5-carboxylic acid (5-ethyl-2-methyl-quinolin-6-yl)-amide] is 53.7 nM. Under `Cc1ccc(-n2ncc(=O)n(C)c2=O)cc1NC(=O)C1=CN(C)C(=O)N[C@H]1c1ccc(F)cc1` [Compound 35, (S)-4-(4-Fluoro-phenyl)-1-methyl-2-oxo-1,2,3,4-tetrahydro-pyrimidine-5-carboxylic acid [2-methyl-5-(4-methyl-3,5-dioxo-4,5-dihydro-3H-[1,2,4]triazin-2-yl)-phenyl]-amide] stands 106 nM. In the case of `COC[C@@H](O)Cn1nc(-c2ccc(C)c(NC(=O)C3=CN(C)C(=O)N[C@H]3c3ccc(F)cc3)c2)cc1C` [Compound 36, (S)-4-(4-Fluoro-phenyl)-1-methyl-2-oxo-1,2,3,4-tetrahydro-pyrimidine-5-carboxylic acid {5-[1-((S)-2-hydroxy-3-methoxy-propyl)-5-methyl-1H-pyrazol-3-yl]-2-methyl-phenyl}-amide], the IC50 is 140 nM. The figure for `Cc1ccc(-n2ncc(=O)n(C)c2=O)cc1NC(=O)C1=CN(C)C(=O)N[C@H]1c1cccc(F)c1` [Compound 37, (S)-4-(3-Fluoro-phenyl)-1-methyl-2-oxo-1,2,3,4-tetrahydro-pyrimidine-5-carboxylic acid [2-methyl-5-(4-methyl-3,5-dioxo-4,5-dihydro-3H-[1,2,4]triazin-2-yl)-phenyl]-amide] is 36.3 nM. Under `CCn1nccc(-c2ccc(C)c(NC(=O)C3=CN(C)C(=O)N[C@H]3c3ccc(F)cc3)c2)c1=O` [Compound 38, (S)-4-(4-Fluoro-phenyl)-1-methyl-2-oxo-1,2,3,4-tetrahydro-pyrimidine-5-carboxylic acid [5-(2-ethyl-3-oxo-2,3-dihydro-pyridazin-4-yl)-2-methyl-phenyl]-amide] stands 14.3 nM; under `COCCN1C=C(C(=O)Nc2cc(OCCO)c(Cl)cc2C)[C@H](c2ccc(F)cc2)NC1=O` [Compound 39, (S)-4-(4-Fluoro-phenyl)-1-(2-methoxy-ethyl)-2-oxo-1,2,3,4-tetrahydro-pyrimidine-5-carboxylic acid [4-chloro-5-(2-hydroxy-ethoxy)-2-methyl-phenyl]-amide], 43 nM. The figure for `Cc1ccc(-c2ccc(=O)n(C)n2)cc1NC(=O)C1=CN(C)C(=O)N[C@H]1c1ccc(F)cc1` [Compound 40, (S)-4-(4-Fluoro-phenyl)-1-methyl-2-oxo-1,2,3,4-tetrahydro-pyrimidine-5-carboxylic acid [2-methyl-5-(1-methyl-6-oxo-1,6-dihydro-pyridazin-3-yl)-phenyl]-amide] is 72.4 nM; for `Cc1ccc(-c2ccc(=O)[nH]n2)cc1NC(=O)C1=CN(C)C(=O)N[C@H]1c1ccc(F)cc1` [Compound 41, (S)-4-(4-Fluoro-phenyl)-1-methyl-2-oxo-1,2,3,4-tetrahydro-pyrimidine-5-carboxylic acid [2-methyl-5-(6-oxo-1,6-dihydro-pyridazin-3-yl)-phenyl]-amide] it is 29.2 nM. As to `Cc1cc2cnn(CCO)c2cc1NC(=O)C1=CN(C)C(=O)N[C@H]1c1ccc(F)cc1` [Compound 42], the IC50 is 14.5 nM. The figure for `COC[C@H](O)Cn1nccc(-c2ccc(C)c(NC(=O)C3=CN(C)C(=O)N[C@H]3c3ccc(F)cc3)c2)c1=O` [Compound 43, (S)-4-(4-Fluoro-phenyl)-1-methyl-2-oxo-1,2,3,4-tetrahydro-pyrimidine-5-carboxylic acid {5-[2-((R)-2-hydroxy-3-methoxy-propyl)-3-oxo-2,3-dihydro-pyridazin-4-yl]-2-methyl-phenyl}-amide] is 29.9 nM.

One may read the IC50 as the concentration that gives 50% inhibition.
